Test [1] concerns NMDA receptor. Briefly: Survival of CBE-treated mice given NMDA receptor agonists or antagonists. It counts as in vivo, mouse. The source says:
(§1) Mice—Pure inbred mouse strains were obtained from the Jackson laboratories (USA), Harlan UK and Harlan Israel. Specifically, BTBR T^+ Itpr3^tf/J C3H/HeJ, DBA/2J, MRL/MpJ, WSB/EiJ, MOLF/Ei, PWD/PhJ, KK/HiJ, BPL/1J, I/LnJ, BPN/3J, and LP/J were obtained from Jackson; A/J, AKR/J, NZW/LacJ, 129S1/SvImJ were obtained from Harlan laboratories in the UK; and C57BL/6JOlaHsd, BALB/cJ and FVB/NJ were obtained from the Harlan laboratories in Israel. Gba^flox/flox; nestin-Cre mice, a mouse model of GD were generated as described in Vitner et al. Nature Medicine (2014) 20: 204-208; and Enquist, I. B. et al. Proc. Natl. Acad. Sci. USA (2007) 104: 17483-17488. These mice recapitulate many features of human nGD, although their Gba1 deficiency is restricted to neural and macroglial lineages. Mice were maintained under specific pathogen-free conditions and handled according to protocols approved by the Weizmann Institute Animal Care Committee according to international guidelines.
CBE injections—Conduritol-β-epoxide (CBE) was obtained from Calbiochem Millipore (Darmstadt, Germany). CBE at a dose of 25 mg or 50 mg per kg body weight per day or PBS (control) were administered i.p. to mice daily starting from postnatal day 8 (P8) of age.
(§2) Treatment with NMDA receptor agonists and antagonists—All agonists and antagonists were administered daily from P8. D-cycloserine (Sigma) was administered daily at a dose of 200 mg/kg/day. MK-801 (Sigma) was administered daily at a dose of 0.3 mg/Kg/day. Memantine (Sigma) was administered daily at a dose of 3 or 30 mg/Kg/day. Ifenprodil (Sigma) was administered daily at a dose of 9 mg/Kg/day.

The target of a further test is T1, GBA1 (Mus musculus, UniProt P17439).
T1 construct: from tissue; host or cells: mouse brain (frozen half-brain homogenate) of inbred strains treated in vivo with PBS, CBE or CBE plus memantine
T1 sequence (P17439 20-515): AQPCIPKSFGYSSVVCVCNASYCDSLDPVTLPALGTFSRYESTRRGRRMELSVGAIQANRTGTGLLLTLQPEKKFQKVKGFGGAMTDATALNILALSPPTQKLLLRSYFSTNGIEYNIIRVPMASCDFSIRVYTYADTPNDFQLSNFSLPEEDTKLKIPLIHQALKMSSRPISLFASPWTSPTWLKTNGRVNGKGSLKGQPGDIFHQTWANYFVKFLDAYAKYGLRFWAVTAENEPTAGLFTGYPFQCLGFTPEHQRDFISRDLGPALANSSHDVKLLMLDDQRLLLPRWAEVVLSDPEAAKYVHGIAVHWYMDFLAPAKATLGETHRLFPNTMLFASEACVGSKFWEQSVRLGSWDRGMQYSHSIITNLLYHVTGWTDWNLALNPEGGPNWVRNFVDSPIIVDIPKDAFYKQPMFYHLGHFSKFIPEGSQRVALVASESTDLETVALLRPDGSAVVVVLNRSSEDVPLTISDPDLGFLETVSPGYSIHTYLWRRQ
Put plainly: GBA1 activity assay in brain homogenates of treated mice. It counts as in vivo. As to conditions: A/J mice, CBE plus memantine. Here is the method:
GBA1 activity assay—GBA1 activity was performed as previously described (Farfel-Becker et al. Hum Mol Genet. 2014; 23(4):843-54). Briefly, frozen half-brain samples were sonicated in Mcllvaine's buffer (0.1 M citric acid, pH 4.2, 0.2 M Na2HPO4, 29:21, vol:vol). Tissue homogenates containing 50 μg of protein were incubated at 37° C. with 8 μM C6-NBD-GlcCer (Avanti Polar Lipids, Alabaster, Ala., USA) in a final volume of 25 μl Mcllvaine's buffer for 30 minutes. Lipids were extracted and the lower phase separated by thin layer chromatography using chloroform:methanol:9.8 mM CaCl2 (60:35:8, vol:vol:vol) as the developing solvent. C6-NBD-ceramide was identified with an authentic standard using a Typhoon 9410 variable mode imager and bands were quantified by Image-QuantTL (GE Healthcare, Chalfont St Giles, UK).
To eliminate the possibility that the phenotypic differences observed in the different mouse strains were caused by differential CBE metabolism in the brain, GBA1 enzymatic activity in mice treated for 10 days with CBE or PBS (control) was measured. […] Overall, the remaining GBA1 activity was 5-10% of the controls (FIG. 3A). There was no correlation between GBA1 activity in the brain and life spans neither in the PBS(R^2=0.126, data not shown) nor CBE conditions (R^2=0.0581, FIG. 3B). In addition, no correlation was found between inhibition of GBA1 activity and life span when evaluated according to strains (R^2=0.0085, data not shown).

Test [2] relates to motor coordination of CBE-treated mice. Put plainly: Locomotor testing by the hanging wire test. Format: in vivo, mouse. The source says: Locomotor testing—Locomotor coordination was weekly evaluated in the treated strains by the hanging wire test, a validated test for LSD mouse models (Alvarez et al. 2008). Briefly, the mouse was placed with forepaws at a center of a horizontal bar (3 mm diameter; 35 mm long).
To further characterize the effect of CBE treatment on the different strains, motor behavior was followed weekly using the hanging wire test, starting at postnatal day 21 for a period of 2 months. The hanging wire test evaluates coordination and locomotor function, wherein a high score means better coordination. […] Of note, strains PWD/PhJ and WSB/EiJ were excluded in the motor behavior analysis due to their wild behavior.

Test [3] concerns NMDA receptor. Briefly: Survival of Gba flox/flox; nestin-Cre mice (genetic nGD model) treated with memantine. It counts as in vivo, mouse. Conditions: memantine 3 or 30 mg/kg day from P8 vs PBS.
From the text: as §1, §2

Experimental findings from patent US20170273917A1, “NMDA RECEPTOR ANTAGONISTS FOR TREATING GAUCHER DISEASE” (Yeda Research and Development Co. Ltd., priority 2014, published 2017) are described below.

Structures are written as SMILES.

In the case of `N[C@@H]1CONC1=O` [D-cycloserine], in the test with NMDA receptor [1] (D-cycloserine 200 mg/kg/day, CBE-treated (25 mg/kg day) long living strains BALB/cJ, FVB/NJ, 129S1/SvImJ, BTBR T+ Itpr3tf/J, daily from P8), the life spans entry is recorded as “reduced the life spans”.

For `CC(C(O)c1ccc(O)cc1)N1CCC(Cc2ccccc2)CC1.O=C(O)C(O)C(O)C(=O)O` (stereo not drawn) [Ifenprodil, α-(4-Hydroxyphenyl)-β-methyl-4-benzyl-1-piperidineethanol (+)-tartrate salt], the life spans entry in the test on NMDA receptor [1] (Ifenprodil 9 mg/Kg/day, CBE (25 mg/kg day)-treated A/J mice, daily from P8) is “showed increments in the life spans”.

As for `C[C@]12N[C@H](Cc3ccccc31)c1ccccc12` [MK-801], the survival entry in the test on NMDA receptor [1] (MK-801 0.3 mg/Kg/day, CBE-treated (25 mg/Kg/day) C3H mice, daily from P8) was “extended the survival”.

As for `CC12CC3CC(C)(C1)CC(N)(C3)C2.Cl` [Memantine, 3,5-Dimethyl-1-adamantanamine hydrochloride], the “interference with GBA1 inhibition in the brain” value on GBA1 (brains harvested P18 or P70) is reported as “did not interfere with GBA1 inhibition”. The “cerebral GBA1 activity” value on GBA1 (postnatal day 70 (P70)) is “almost undetectable”. Besides, the “progression of the motor dysfunction induced by CBE (hanging wire test)” value in test [2] (A/J mice, CBE plus memantine) is reported as “delayed the progression of the motor dysfunction”. Moreover, in test [2] (memantine-treated CBE mice at postnatal day 49), the “hanging wire test score” value was “the same score as CBE-treated mice at P21”. The life span result in the test with NMDA receptor [1] (memantine 3 mg/kg day plus CBE 25 mg/kg day, A/J, C3H/HeJ, DBA/2J and C57BL6/JolaHsd mice, daily from P8) is “significantly extended the life span”. The survival result is “significantly extended survival” in the test on NMDA receptor [1] (memantine 30 mg/kg/day, CBE 50 mg/kg/day, AJ mice, daily from P8) and “significantly extended survival” in the test with NMDA receptor [3]. Moreover, the “increase of life span compared with MK-801” value with NMDA receptor [1] (neuropathic GD (CBE-treated) mice) is given as “to a greater extent than MK-801”.
